Data from paper PMC8429728, “TNK1 is a ubiquitin-binding and 14-3-3-regulated kinase that can be targeted to block tumor growth” (Nature Communications, 2021).
Like-named read-outs stand apart in the source and are kept apart here.

Assays:
Assay in all cases: biochemical
Parameters in all cases: Reaction Biology 371-kinase panel at Km ATP, per cent enzyme activity relative to DMSO, single dose in duplicate
Conditions in all cases: duplicate measurements, Km ATP
LCK2/ICK = target: T1, LCK2/ICK (Homo sapiens, UniProt Q9UPZ9)
T1 construct: gene CILK1
Method in brief: (§1)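 First, kinases from a 371-member panel were exposed in vitro to 300 nM inhibitor. Next, % enzyme activity versus DMSO was computed. Finally, IC50s were derived by sigmoidal dose-response fitting with variable slope and a zero bottom constraint.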

PIM3 = PIM3 (Homo sapiens, UniProt Q86V86)
Method in brief: as §1

CHK1 = target: T2, CHK1 (Homo sapiens, UniProt O14757)
T2 construct: gene CHEK1
Method in brief: as §1

CDK2/cyclin E2 = CDK2/cyclin E2 (Homo sapiens, UniProt P24941)
Method in brief: as §1

CAMK1b = target: T3, CAMK1b (Homo sapiens, UniProt Q6P2M8)
T3 construct: gene PNCK
Method in brief: as §1

EPHB1 = EPHB1 (Homo sapiens, UniProt P54762)
Method in brief: as §1

WNK1 = WNK1 (Homo sapiens, UniProt Q9H4A3)
Method in brief: as §1

YES/YES1 = YES/YES1 (Homo sapiens, UniProt P07947)
Method in brief: as §1

p70S6Kb/RPS6KB2 = p70S6Kb/RPS6KB2 (Homo sapiens, UniProt Q9UBS0)
Method in brief: as §1

HIPK1 = HIPK1 (Homo sapiens, UniProt Q86Z02)
Method in brief: as §1

CK1g1 = target: T4, CK1g1 (Homo sapiens, UniProt Q9HCP0)
T4 construct: gene CSNK1G1
Method in brief: as §1

DYRK3 = DYRK3 (Homo sapiens, UniProt O43781)
Method in brief: as §1

PKA = target: T5, PKA (Homo sapiens, UniProt P17612)
T5 construct: gene PRKACA
Method in brief: as §1

CK2a = target: T6, CK2a (Homo sapiens, UniProt P68400)
T6 construct: gene CSNK2A1
Method in brief: as §1

CDK3/cyclin E2 = CDK3/cyclin E2 (Homo sapiens, UniProt Q00526)
Method in brief: as §1

MASTL = MASTL (Homo sapiens, UniProt Q96GX5)
Method in brief: as §1

NEK5 = NEK5 (Homo sapiens, UniProt Q6P3R8)
Method in brief: as §1

MKK6 = target: T7, MKK6 (Homo sapiens, UniProt P52564)
T7 construct: gene MAP2K6
Method in brief: as §1

CDK4/cyclin D3 = CDK4/cyclin D3 (Homo sapiens, UniProt P11802)
Method in brief: as §1

CDK3/cyclin E = CDK3/cyclin E (Homo sapiens, UniProt Q00526)
Method in brief: as §1

[1] = read-out: % Enzyme Activity (relative to DMSO controls) / TP-0005801 (0.3µM) / Data 1
[2] = read-out: % Enzyme Activity (relative to DMSO controls) / TP-0005801 (0.3µM) / Data 2

Sequence of NEK5 (Q6P3R8 whole entry): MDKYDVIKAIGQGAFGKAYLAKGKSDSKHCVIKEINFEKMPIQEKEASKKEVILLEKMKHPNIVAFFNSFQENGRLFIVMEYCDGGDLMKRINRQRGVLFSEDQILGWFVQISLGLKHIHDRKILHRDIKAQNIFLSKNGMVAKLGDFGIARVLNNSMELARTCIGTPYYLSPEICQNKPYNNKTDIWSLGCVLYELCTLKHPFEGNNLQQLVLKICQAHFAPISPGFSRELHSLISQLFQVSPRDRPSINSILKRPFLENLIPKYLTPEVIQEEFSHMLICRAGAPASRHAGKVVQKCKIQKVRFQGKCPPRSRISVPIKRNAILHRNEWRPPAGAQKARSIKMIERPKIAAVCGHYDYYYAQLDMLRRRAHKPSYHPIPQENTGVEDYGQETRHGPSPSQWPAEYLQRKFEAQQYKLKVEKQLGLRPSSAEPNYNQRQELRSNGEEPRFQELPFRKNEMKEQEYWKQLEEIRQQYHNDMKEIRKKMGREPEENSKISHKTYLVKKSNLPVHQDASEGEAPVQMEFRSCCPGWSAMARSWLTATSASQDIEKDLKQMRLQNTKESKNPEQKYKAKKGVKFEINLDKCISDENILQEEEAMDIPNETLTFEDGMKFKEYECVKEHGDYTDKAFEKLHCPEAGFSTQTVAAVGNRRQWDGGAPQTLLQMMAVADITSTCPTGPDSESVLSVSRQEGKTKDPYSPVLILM
T4 sequence (Q9HCP0 whole entry): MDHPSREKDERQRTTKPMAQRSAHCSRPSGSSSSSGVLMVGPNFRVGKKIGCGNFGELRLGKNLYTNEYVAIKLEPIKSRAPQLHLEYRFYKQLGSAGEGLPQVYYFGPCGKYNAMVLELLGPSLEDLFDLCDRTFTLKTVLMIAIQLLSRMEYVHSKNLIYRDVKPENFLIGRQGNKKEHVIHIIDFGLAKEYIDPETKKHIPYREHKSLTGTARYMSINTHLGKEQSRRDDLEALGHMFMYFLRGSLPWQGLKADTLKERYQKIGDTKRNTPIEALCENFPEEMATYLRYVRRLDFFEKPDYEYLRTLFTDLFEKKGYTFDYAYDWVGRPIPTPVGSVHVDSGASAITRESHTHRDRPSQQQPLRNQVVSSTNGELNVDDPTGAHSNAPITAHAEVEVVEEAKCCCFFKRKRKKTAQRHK
T6 sequence (P68400 whole entry): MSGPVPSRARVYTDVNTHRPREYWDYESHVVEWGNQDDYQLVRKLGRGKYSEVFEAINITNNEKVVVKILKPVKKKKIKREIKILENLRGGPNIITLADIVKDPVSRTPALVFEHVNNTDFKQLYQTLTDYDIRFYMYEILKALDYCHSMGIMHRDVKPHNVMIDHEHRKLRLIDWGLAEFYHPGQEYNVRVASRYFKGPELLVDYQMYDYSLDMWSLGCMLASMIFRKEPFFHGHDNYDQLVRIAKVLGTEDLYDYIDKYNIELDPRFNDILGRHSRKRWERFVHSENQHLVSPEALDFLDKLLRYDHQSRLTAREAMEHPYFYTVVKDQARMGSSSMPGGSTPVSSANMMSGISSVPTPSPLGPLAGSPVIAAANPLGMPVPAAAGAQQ
Sequence of DYRK3 (O43781 whole entry): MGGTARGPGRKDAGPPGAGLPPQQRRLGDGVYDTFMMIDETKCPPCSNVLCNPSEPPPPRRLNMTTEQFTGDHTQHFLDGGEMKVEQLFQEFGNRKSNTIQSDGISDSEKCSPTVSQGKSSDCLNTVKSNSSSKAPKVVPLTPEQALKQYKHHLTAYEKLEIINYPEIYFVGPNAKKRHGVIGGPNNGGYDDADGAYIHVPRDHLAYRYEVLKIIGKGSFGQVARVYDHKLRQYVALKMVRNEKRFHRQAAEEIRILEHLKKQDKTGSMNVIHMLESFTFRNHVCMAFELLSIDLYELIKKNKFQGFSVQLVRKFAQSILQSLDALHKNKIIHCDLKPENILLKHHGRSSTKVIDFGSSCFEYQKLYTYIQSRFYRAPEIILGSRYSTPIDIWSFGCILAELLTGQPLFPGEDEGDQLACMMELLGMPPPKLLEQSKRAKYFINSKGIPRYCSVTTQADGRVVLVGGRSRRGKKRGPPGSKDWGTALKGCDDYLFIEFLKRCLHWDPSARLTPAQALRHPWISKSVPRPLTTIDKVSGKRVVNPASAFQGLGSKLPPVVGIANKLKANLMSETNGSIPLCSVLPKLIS
Sequence of MASTL (Q96GX5 whole entry): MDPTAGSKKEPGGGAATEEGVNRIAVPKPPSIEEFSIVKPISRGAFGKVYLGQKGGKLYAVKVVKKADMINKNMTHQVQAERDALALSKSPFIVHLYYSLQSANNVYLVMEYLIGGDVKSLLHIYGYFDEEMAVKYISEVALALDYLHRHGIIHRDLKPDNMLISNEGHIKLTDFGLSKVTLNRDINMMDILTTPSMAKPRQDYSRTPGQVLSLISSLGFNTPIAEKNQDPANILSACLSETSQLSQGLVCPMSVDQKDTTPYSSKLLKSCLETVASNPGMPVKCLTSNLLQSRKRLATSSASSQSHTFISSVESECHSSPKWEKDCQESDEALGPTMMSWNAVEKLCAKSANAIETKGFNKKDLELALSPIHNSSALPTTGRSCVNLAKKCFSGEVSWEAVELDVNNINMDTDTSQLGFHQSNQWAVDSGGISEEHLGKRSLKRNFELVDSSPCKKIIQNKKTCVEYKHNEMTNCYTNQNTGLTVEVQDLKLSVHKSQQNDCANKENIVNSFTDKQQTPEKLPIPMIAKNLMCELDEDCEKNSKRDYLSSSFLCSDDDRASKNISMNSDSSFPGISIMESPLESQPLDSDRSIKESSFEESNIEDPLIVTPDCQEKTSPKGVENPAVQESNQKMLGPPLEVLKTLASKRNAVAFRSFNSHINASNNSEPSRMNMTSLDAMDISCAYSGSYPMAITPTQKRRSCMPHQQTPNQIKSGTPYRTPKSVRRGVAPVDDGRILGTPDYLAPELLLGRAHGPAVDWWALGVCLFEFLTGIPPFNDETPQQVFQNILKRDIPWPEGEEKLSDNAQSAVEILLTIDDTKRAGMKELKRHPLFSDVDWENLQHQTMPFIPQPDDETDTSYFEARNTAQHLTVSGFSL
Sequence of HIPK1 (Q86Z02 whole entry): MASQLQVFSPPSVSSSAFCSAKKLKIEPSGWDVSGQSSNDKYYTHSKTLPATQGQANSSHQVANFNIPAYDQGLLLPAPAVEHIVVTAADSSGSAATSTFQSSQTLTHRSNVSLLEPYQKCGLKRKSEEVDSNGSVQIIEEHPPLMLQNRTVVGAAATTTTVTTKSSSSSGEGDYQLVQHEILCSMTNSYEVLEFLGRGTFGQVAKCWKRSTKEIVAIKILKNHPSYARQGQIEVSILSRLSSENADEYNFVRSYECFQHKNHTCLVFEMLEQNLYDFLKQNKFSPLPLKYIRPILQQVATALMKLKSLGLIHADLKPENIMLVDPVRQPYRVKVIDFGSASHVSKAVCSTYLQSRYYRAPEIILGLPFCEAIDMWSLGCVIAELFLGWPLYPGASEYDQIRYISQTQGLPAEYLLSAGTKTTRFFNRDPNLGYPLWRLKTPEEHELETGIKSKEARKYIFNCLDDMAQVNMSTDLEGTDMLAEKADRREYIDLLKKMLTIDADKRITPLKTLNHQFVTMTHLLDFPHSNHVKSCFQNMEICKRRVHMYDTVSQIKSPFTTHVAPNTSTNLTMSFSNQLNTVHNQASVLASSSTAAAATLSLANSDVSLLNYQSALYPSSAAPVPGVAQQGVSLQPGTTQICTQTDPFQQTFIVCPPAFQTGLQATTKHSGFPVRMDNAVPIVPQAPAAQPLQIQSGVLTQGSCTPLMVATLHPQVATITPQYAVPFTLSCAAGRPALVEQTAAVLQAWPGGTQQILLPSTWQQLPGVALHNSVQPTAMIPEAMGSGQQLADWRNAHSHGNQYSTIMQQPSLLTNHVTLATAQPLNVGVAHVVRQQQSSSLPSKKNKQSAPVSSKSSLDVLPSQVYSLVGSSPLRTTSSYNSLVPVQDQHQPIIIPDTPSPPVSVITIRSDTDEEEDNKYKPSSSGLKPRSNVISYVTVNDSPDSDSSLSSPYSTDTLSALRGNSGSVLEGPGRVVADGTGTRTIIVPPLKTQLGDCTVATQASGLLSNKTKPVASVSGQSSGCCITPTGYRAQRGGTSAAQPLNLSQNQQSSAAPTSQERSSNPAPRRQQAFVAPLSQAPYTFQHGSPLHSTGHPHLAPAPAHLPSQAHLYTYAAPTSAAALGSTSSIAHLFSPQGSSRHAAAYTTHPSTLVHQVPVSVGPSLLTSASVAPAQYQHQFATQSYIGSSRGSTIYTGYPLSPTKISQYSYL
T3 sequence (Q6P2M8 whole entry): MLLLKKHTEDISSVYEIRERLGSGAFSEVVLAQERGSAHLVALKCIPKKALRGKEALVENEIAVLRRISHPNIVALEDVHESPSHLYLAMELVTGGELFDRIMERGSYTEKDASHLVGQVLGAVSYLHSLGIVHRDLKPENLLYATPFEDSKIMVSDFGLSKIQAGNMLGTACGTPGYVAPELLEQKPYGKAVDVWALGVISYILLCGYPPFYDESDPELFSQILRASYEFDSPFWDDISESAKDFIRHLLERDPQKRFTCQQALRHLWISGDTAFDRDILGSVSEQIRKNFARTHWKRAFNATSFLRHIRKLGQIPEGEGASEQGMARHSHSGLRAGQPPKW
Sequence of p70S6Kb/RPS6KB2 (Q9UBS0 whole entry): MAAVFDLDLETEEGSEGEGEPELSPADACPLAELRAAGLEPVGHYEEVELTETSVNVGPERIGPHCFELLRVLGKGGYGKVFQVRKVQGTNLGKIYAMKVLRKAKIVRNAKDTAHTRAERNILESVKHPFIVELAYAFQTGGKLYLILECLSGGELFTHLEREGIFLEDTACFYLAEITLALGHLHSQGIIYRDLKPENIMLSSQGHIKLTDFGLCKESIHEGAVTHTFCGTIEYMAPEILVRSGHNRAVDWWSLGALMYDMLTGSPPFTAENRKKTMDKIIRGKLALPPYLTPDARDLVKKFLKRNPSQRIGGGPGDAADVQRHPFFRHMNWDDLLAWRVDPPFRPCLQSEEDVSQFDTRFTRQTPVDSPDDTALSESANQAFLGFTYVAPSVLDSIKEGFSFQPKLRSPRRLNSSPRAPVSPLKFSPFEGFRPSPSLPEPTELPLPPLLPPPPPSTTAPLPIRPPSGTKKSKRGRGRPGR

- remaining activity at 0.3 µM (LCK2/ICK; [1]): 90.2%
- remaining activity at 0.3 µM (LCK2/ICK; [2]): 87.9%
- remaining activity at 0.3 µM (PIM3; [1]): 96%
- remaining activity at 0.3 µM (PIM3; [2]): 95.5%
- remaining activity at 0.3 µM (CHK1; [1]): 104%
- remaining activity at 0.3 µM (CHK1; [2]): 101%
- remaining activity at 0.3 µM (CDK2/cyclin E2; [1]): 102%
- remaining activity at 0.3 µM (CDK2/cyclin E2; [2]): 101%
- remaining activity at 0.3 µM (CAMK1b; [1]): 119%
- remaining activity at 0.3 µM (CAMK1b; [2]): 114%
- remaining activity at 0.3 µM (EPHB1; [1]): 90.7%
- remaining activity at 0.3 µM (EPHB1; [2]): 89%
- remaining activity at 0.3 µM (WNK1; [1]): 108%
- remaining activity at 0.3 µM (WNK1; [2]): 104%
- remaining activity at 0.3 µM (YES/YES1; [1]): 87.4%
- remaining activity at 0.3 µM (YES/YES1; [2]): 85.4%
- remaining activity at 0.3 µM (p70S6Kb/RPS6KB2; [1]): 95.7%
- remaining activity at 0.3 µM (p70S6Kb/RPS6KB2; [2]): 90.1%
- remaining activity at 0.3 µM (HIPK1; [1]): 90.8%
- remaining activity at 0.3 µM (HIPK1; [2]): 89.2%
- remaining activity at 0.3 µM (CK1g1; [1]): 88.5%
- remaining activity at 0.3 µM (CK1g1; [2]): 87.8%
- remaining activity at 0.3 µM (DYRK3; [1]): 126%
- remaining activity at 0.3 µM (DYRK3; [2]): 124%
- remaining activity at 0.3 µM (PKA; [1]): 110%
- remaining activity at 0.3 µM (PKA; [2]): 108%
- remaining activity at 0.3 µM (CK2a; [1]): 42.4%
- remaining activity at 0.3 µM (CK2a; [2]): 41.8%
- remaining activity at 0.3 µM (CDK3/cyclin E2; [1]): 95.5%
- remaining activity at 0.3 µM (CDK3/cyclin E2; [2]): 95.1%
- remaining activity at 0.3 µM (MASTL; [1]): 97%
- remaining activity at 0.3 µM (MASTL; [2]): 96.1%
- remaining activity at 0.3 µM (NEK5; [1]): 98.5%
- remaining activity at 0.3 µM (NEK5; [2]): 96.9%
- remaining activity at 0.3 µM (MKK6; [1]): 116%
- remaining activity at 0.3 µM (MKK6; [2]): 115%
- remaining activity at 0.3 µM (CDK4/cyclin D3; [1]): 91.7%
- remaining activity at 0.3 µM (CDK4/cyclin D3; [2]): 90.8%
- remaining activity at 0.3 µM (CDK3/cyclin E; [1]): 98%
- remaining activity at 0.3 µM (CDK3/cyclin E; [2]): 97.7%
Compound: COc1cc(N2CCN(C)CC2)c(C)cc1Nc1ncc(Br)c(Nc2cccnc2N(C)C)n1 [TP-5801]
